Measurements from patent publication EP0171702A1, “Benzoxazinone derivatives, preparation and use” (BEECHAM GROUP PLC, priority 1984, dated 1986).
Read-outs that look alike come from different tables or passages of the source. One block for each compound: values may come before it.

Tests used:
[1] = system: Male Sprague-Dawley rats; test: Effect on energy expenditure of rats; type: in vivo; conditions: percentage of rate of rats dosed with water; for response vs control in vivo at 21.6 mg/kg / response vs control in vivo at 4 mg/kg / response vs control in vivo at 7.2 mg/kg / response vs control in vivo at 4.3 mg/kg / response vs control in vivo at 3.7 mg/kg / response vs control in vivo at 7.1 mg/kg / response vs control in vivo at 8.9 mg/kg / response vs control in vivo at 32.6 mg/kg / response vs control in vivo at 8.2 mg/kg / response vs control in vivo at 3.6 mg/kg / response vs control in vivo at 4.1 mg/kg: Rattus norvegicus, po; for response vs control in vivo at 21.6 mg/kg: 21.6 mg/kg p.o.; for response vs control in vivo at 4 mg/kg: 4.0 mg/kg p.o.; for response vs control in vivo at 7.2 mg/kg: 7.2 mg/kg p.o.; for response vs control in vivo at 4.3 mg/kg: 4.3 mg/kg p.o.; for response vs control in vivo at 3.7 mg/kg: 3.7 mg/kg p.o.; for response vs control in vivo at 7.1 mg/kg: 7.1 mg/kg p.o.; for response vs control in vivo at 8.9 mg/kg: 8.9 mg/kg p.o.; for response vs control in vivo at 32.6 mg/kg: 32.6 mg/kg p.o.; for response vs control in vivo at 8.2 mg/kg: 8.2 mg/kg p.o.; for response vs control in vivo at 4.1 mg/kg: 4.1 mg/kg p.o.
Experimental: Water was provided ad lib at all times. The compounds were administered orally in water to 3 or 4 rats. A further 4 rats were dosed orally with water. The rats were placed in boxes through which air was drawn and the oxygen content of the air leaving the boxes was measured. The energy expenditure of the rats was calculated for 3 hours and for 21 hours after dosing from the volume of air leaving the boxes and its oxygen content, following the principles described by J.B. de V. Weir, J. Physiol. (London) 109, 1-9 (1949). The results are expressed as a percentage of the rate of energy expenditure of the rats dosed with water.

[2] = system: spontaneously beating right atrium; test: Isolated rat atria: rate of the spontaneously beating right atrium; conditions: for Emax: read-out: Rate Intrinsic Activity; for EC50: molar concentration producing 50% of the compound's own maximum response
Experimental: (§1) Sprague-Dawley male rats (300-400g) are killed and the right and left atria dissected out independently and mounted on a combined tissue holder/electrode. […] The rate of the spontaneously beating right atrium (via an isometric transducer and a ratemeter) and the tension of the electrically paced left atrium (via an isometric transducer) are recorded on a M19 chart recorder.
(§2) After an initial stabilization period, the tissues are exposed to a maximal concentration of isoprenaline (10-^7M). The tissues are then washed several times until rate and tension return to baseline level. A dose-response curve to the test compound is then carried out.
(§3) Responses to each concentration of test compound are expressed as a percentage of the maximal responses to isoprenaline. Results are given in the form of (a) intrinsic activity (maximal effect of test compound with respect to isoprenaline maximum, i.e. isoprenaline intrinsic activity = 1) and (b) EC50 (the molar concentration at which the test compound produces 50% of its own maximum response).

[3] = system: electrically paced left atrium; test: Isolated rat atria: tension of the electrically paced left atrium; conditions: for Emax: read-out: Tension Intrinsic Activity; for EC50: molar concentration producing 50% of the compound's own maximum response
Experimental: as §1, §2, §3

[4] = 3 h, 0-3h after dosing, read-out: Mean Energy Expenditure 0-3h
[5] = 21 h, 0-21h after dosing, read-out: Mean Energy Expenditure 0-21h
[6] = Rattus norvegicus, organ bath at 29°C, maximal effect relative to isoprenaline maximum (isoprenaline = 1)
[7] = Rattus norvegicus, organ bath at 29°C
[8] = Rattus norvegicus, Krebs solution at 32°C, maximal effect relative to isoprenaline maximum (isoprenaline = 1)
[9] = Rattus norvegicus, Krebs solution at 32°C
[10] = Krebs solution at 32°C, maximal effect relative to isoprenaline maximum (isoprenaline = 1)

Compound: C=CCOc1ccccc1OCC(O)CNC(C)COc1ccc2c(c1)NC(=O)CO2 (centres unmarked) [Example 16, 6-[2-[3-(2-Allyloxyphenoxy)-2-hydroxypropylamino]-2-methyl-ethoxy]-2H-1,4-benzoxazin-3-(4H)-one]
response vs control in vivo at 4.3 mg/kg [1, 4]: 115% | response vs control in vivo at 4.3 mg/kg [1, 5]: 101%

Compound: CC(Cc1ccc2c(c1)NC(=O)CO2)NCC(O)COc1ccc(O)cc1 (centres unmarked) [Example 14, 6-[2-[3-(4-Hydroxyphenoxy)-2-hydroxypropylamino]-2-methylethyl]-2H-1,4-benzoxazin-3-(4H)-one]
response vs control in vivo at 3.7 mg/kg [1, 4]: 114% | response vs control in vivo at 3.7 mg/kg [1, 5]: 103% | Emax [2, 8]: 87% | EC50 [2, 9]: 400 nM | Emax [3, 8]: 54% | EC50 [3, 9]: 1400 nM

Compound: CC(Cc1ccc2c(c1)NC(=O)CO2)NCC(O)COc1ccccc1 (centres unmarked) [Example 11, 6-[2-[3-Phenoxy-2-hydroxypropylamino]-2-methylethyl]-2H-1,4-benzoxazin-3-(4H)-one]
response vs control in vivo at 7.1 mg/kg [1, 4]: 119% | response vs control in vivo at 7.1 mg/kg [1, 5]: 108% | Emax [2, 8]: 32% | EC50 [2, 9]: 53 nM | Emax [3, 8]: 11% | EC50 [3, 9]: 100 nM

Compound: CC(Cc1ccc2c(c1)NC(=O)CO2)NCC(O)c1cccc(Cl)c1 (centres unmarked) [8 (82:18), 6-[2-[2-(3-chlorophenyl)-2-hydroxyethylamino]-2-methylethyl]-2H-1,4-benzoxazin-3-(4H)-one]
Mean Energy Expenditure 0-3h ([1]; 3.6 mg/kg p.o., 0-3h after dosing): 122% | Mean Energy Expenditure 0-21h ([1]; 3.6 mg/kg p.o., 0-21h after dosing): 106% | EC50 ([2]; Krebs solution at 32°C): 240 nM | Emax [2, 8]: 29% | Emax [3, 8]: 12% | EC50 [3, 9]: 3200 nM

Compound: CC(Cc1ccc2c(c1)NC(=O)CO2)NCC(O)COc1ccccc1O (centres unmarked) [Example 9, 6-[2-[3-(2-hydroxyphenoxy)-2-hydroxypropylamino]-2-methylethyl]-2H-1,4-benzoxazin-3-(4H)-one]
Emax [2, 8]: 15% | EC50 [2, 9]: 30 nM | Emax [3, 8]: 12% | EC50 [3, 9]: 28 nM

Compound: CC(Cc1ccc2c(c1)N(C)C(=O)CO2)NCC(O)c1cccc(Cl)c1 (centres unmarked) [Example 13, 6-[2-[2-(3-Chlorophenyl)-2-hydroxyethylamino]-2-methylethyl]-4-methyl-2H-1,4-benzoxazin-3-(4H)-one hemifumarate]
Emax [2, 6]: 64% | EC50 [2, 7]: 250 nM | Emax [3, 6]: 54% | EC50 [3, 7]: 15000 nM

Compound: CC(Cc1ccc2c(c1)NC(=O)CO2)NCC(O)c1ccccc1 (centres unmarked) [Example 10, 6-[2-[2-Phenyl-2-hydroxyethylamino]-2-methylethyl]-2H-1,4-benzoxazin-3-(4H)-one]
response vs control in vivo at 32.6 mg/kg [1, 4]: 122% | response vs control in vivo at 32.6 mg/kg [1, 5]: 101%

Compound: CC(Cc1ccc2c(c1)NC(=O)CO2)NCC(O)c1cccc(Cl)c1 (centres unmarked) [8 (14:86), 6-[2-[2-(3-Chlorophenyl)-2-hydroxyethylamino]-2-methylethyl]-2H-1,4-benzoxazin-3-(4H)-one]
response vs control in vivo at 3.6 mg/kg ([1]; 3 h, 3.6 mg/kg p.o., 0-3h after dosing, read-out: Mean Energy Expenditure 0-3h): 125% | response vs control in vivo at 3.6 mg/kg ([1]; 21 h, 3.6 mg/kg p.o., 0-21h after dosing, read-out: Mean Energy Expenditure 0-21h): 105% | Rate Intrinsic Activity [2, 10]: 0.16 | EC50 ([2]; Krebs solution at 32°C): 750 nM | Tension Intrinsic Activity [3, 10]: 0.20 | EC50 ([3]; Krebs solution at 32°C): 3800 nM

More lines, main results first:

EC50 [2, 7]: 16 nM
Compound: CC(COc1ccc2c(c1)NC(=O)CO2)NCC(O)COc1cc(O)cc(O)c1 (centres unmarked) [Example 21, 6-[2-[3-(3,5-Dihydroxyphenoxy)-2-hydroxypropylamino]-2-methylethoxy]-2H-1,4-benzoxazin-3-(4H)-one hemifumarate]
response vs control in vivo at 21.6 mg/kg [1, 4]: 110% | response vs control in vivo at 21.6 mg/kg [1, 5]: 105% | Emax [2, 6]: 85%

EC50 [2, 7]: 8.6 nM
Compound: COc1ccccc1OCC(O)CNC(C)COc1ccc2c(c1)NC(=O)CO2 (centres unmarked) [Example 17, 6-[2-[3-(2-Methoxyphenoxy)-2-hydroxypropylamino]-2-methyl-ethoxy]-2H-1,4-benzoxazin-3-(4H)-one]
response vs control in vivo at 4 mg/kg [1, 4]: 112% | response vs control in vivo at 4 mg/kg [1, 5]: 103% | Emax [2, 6]: 91%

EC50 [2, 9]: 44 nM | EC50 [3, 9]: 160 nM
Compound: CC(COc1ccc2c(c1)NC(=O)CO2)NCC(O)c1ccc(O)cc1 (centres unmarked) [Example 15, 6-[2-[2-(4-Hydroxyphenyl)-2-hydroxyethylamino]-2-methylethoxy]-2H-1,4-benzoxazin-3-(4H)-one]
response vs control in vivo at 7.2 mg/kg [1, 4]: 126% | response vs control in vivo at 7.2 mg/kg [1, 5]: 103% | Emax [2, 8]: 98% | Emax [3, 8]: 88%

EC50 [2, 9]: 11 nM
Compound: CC(COc1ccc2c(c1)NC(=O)CO2)NCC(O)COc1ccccc1 (centres unmarked) [Example 18, 6-[2-(2-Hydroxy-3-phenoxypropylamino)-2-methylethoxy]-2H-1,4-benzoxazin-3-(4H)-one]
response vs control in vivo at 3.7 mg/kg [1, 4]: 155% | response vs control in vivo at 3.7 mg/kg [1, 5]: 109% | Emax [2, 8]: 52%

EC50 [2, 9]: 35 nM
Compound: CC(COc1ccc2c(c1)NC(=O)CO2)NCC(O)COc1ccccc1O (centres unmarked) [Example 5, 6-[2-[3-(2-hydroxyphenoxy)-2-hydroxypropylamino]-2-methylethoxy]-2H-1,4-benzoxazin-3-(4H)-one hemifumarate]
response vs control in vivo at 8.9 mg/kg [1, 4]: 111% | response vs control in vivo at 8.9 mg/kg [1, 5]: 100% | Emax [2, 8]: 18%

EC50 [2, 7]: 29 nM | EC50 [3, 7]: 790 nM
Compound: CC(COc1ccc2c(c1)N(C)C(=O)CO2)NCC(O)c1cccc(Cl)c1 (centres unmarked) [Example 12, 6-[2-[2-(3-Chlorophenyl)-2-hydroxyethylamino]-2-methylethoxy]-4-methyl-2H-1,4-benzoxazin-3-(4H)-one hemifumarate]
response vs control in vivo at 8.9 mg/kg [1, 4]: 109% | response vs control in vivo at 8.9 mg/kg [1, 5]: 97% | Emax [2, 6]: 98% | Emax [3, 6]: 90%

EC50 [2, 7]: 130 nM
Compound: CC(COc1ccc2c(c1)NC(=O)CO2)NCC(O)COc1cccc2[nH]ccc12 (centres unmarked) [Example 19, 6-[2-[2-hydroxy-3-(indol-4-yloxy)propylamino]-2-methyl-ethoxy]-2H-1,4-benzoxazin-3-(4H)-one]
response vs control in vivo at 8.2 mg/kg [1, 4]: 116% | response vs control in vivo at 8.2 mg/kg [1, 5]: 114% | Emax [2, 6]: 54%

EC50 [2, 7]: 63 nM | EC50 [3, 7]: 130 nM
Compound: CCc1cccc2cc(C(O)CNC(C)COc3ccc4c(c3)NC(=O)CO4)oc12 (centres unmarked) [Example 20, 6-[2-[2-(7-Ethylbenzofuran-2-yl)-2-hydroxyethylamino]-2-methylethoxy]-2H-1,4-benzoxazin-3-(4H)-one]
response vs control in vivo at 4.1 mg/kg [1, 4]: 110% | response vs control in vivo at 4.1 mg/kg [1, 5]: 107% | Emax [2, 6]: 95% | Emax [3, 6]: 113%
